Experimental data taken from PMC3014912 (Journal of molecular modeling, 2010).

Molecular target: T1, human carboxylesterase 1 (hCE1) (Homo sapiens, UniProt P23141)
T1 sequence (P23141 18-567): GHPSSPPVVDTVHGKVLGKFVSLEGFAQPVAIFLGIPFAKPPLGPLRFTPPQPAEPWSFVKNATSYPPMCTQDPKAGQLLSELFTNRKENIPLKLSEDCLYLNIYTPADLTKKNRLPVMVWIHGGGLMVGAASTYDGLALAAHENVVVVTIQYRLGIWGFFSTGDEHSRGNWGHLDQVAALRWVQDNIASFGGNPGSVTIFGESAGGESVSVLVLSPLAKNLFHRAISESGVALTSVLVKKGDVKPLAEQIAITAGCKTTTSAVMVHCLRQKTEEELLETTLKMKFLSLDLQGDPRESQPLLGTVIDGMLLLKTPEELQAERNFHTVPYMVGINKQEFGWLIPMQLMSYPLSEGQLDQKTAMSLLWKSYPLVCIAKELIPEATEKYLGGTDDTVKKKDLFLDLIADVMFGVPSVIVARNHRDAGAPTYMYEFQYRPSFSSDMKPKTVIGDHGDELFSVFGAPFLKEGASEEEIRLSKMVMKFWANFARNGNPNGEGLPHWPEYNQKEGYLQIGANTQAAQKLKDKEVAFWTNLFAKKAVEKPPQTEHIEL
Assay: hCE1 inhibition, p-nitrophenyl acetate hydrolysis
Type: biochemical

| Structure (SMILES) | IC50 |
| --- | --- |
| CCCCCCCCOCC(=O)C(F)(F)F [Compound 4, 1,1,1-trifluoro-3-octyloxypropan-2-one] | 0.02 µM |
| CCCCCCCCCCC(C)=O [Compound 9, 2-dodecanone, reference compound] | > 1000 µM |
